According to patent US12139492B2 (Endotarget Inc., priority 2021, dated 2024):
Read-outs that look alike come from different tables or passages of the source.

What was measured:
[1] = tested on: Mino cells; experiment: Antiproliferative effect, MTS cell viability assay, Mino cells; format: cell-based; details: Mino mantle cell lymphoma cells, read-out: IC50 (anti-proliferation) Mino cells
Summary of the method: (§1)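 MTS read-out, A490 of formazan from metabolically active cells; compound 0–10 μM (0, 0.001, 0.01, 0.1, 1, 10 μM), 72 h exposure.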

[2] = biological target: T1, BTK (Homo sapiens, UniProt Q06187); experiment: Degradation of BTK protein in JeKo-1 cells (Western blot; DC50, Dmax); details: JeKo-1 mantle cell lymphoma cells, various concentrations, 24 hours
T1 sequence (Q06187 whole entry): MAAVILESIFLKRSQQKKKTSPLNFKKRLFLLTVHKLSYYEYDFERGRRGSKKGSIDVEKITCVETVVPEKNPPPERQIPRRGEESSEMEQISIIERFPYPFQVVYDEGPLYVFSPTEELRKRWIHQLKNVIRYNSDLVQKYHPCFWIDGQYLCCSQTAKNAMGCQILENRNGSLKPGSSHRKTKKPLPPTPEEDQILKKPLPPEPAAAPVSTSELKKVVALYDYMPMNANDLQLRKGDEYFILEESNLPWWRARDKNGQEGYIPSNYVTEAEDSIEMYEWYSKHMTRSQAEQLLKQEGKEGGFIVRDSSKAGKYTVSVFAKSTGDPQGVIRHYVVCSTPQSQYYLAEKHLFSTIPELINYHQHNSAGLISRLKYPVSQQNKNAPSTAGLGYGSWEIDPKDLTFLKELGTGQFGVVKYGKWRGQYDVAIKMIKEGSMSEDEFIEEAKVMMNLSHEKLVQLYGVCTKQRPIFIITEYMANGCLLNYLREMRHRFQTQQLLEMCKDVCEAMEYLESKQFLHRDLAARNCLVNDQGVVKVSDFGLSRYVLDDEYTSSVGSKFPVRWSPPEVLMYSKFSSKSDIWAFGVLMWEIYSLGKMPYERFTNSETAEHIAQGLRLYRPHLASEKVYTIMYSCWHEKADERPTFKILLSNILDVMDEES
Protocol: (§2) Namalwa, JeKo-1, or Mino cells were plated in 24-well plates at a density of 10^5 cells/well. Media containing various drug concentrations were added on the day following plating (day 0) and allowed to incubate for 24 hours for Western blot. Media with the tested compound was changed every other day. […] Media were removed and dishes were washed with 1×DPBS. Lysates were made by adding 150 μL of complete lysis solution and scraping cells into a 1.5 mL microcentrifuge tube. Lysates were placed on a rotisserie at 4° C. for 30 min and then spun at 4° C. at 12000 rcf for 10 min. Supernatants were assayed for protein content, snap-frozen, and stored a −80° C. if not run immediately. Then 50 μg of protein was subjected to Western blot protocol. […] They were then imaged on a LICOR infrared scanner.

[3] = tested on: JeKo-1 cells; experiment: Antiproliferative effect, MTS cell viability assay, JeKo-1 cells; format: cell-based; details: JeKo-1 mantle cell lymphoma cells, read-out: IC50 (anti-proliferation) JeKO-1 cells
Summary of the method: as §1

[4] = biological target: T1, BTK; experiment: Degradation of BTK protein in Namalwa cells (Western blot; DC50, Dmax); details: for degradation of BTK protein / degradation of BTK protein at 10^−6 M: Namalwa B lymphocyte cells, Western blot; for degradation of BTK protein: various concentrations, 24 hours; for DC50: cell line not given
[5] = biological target: T1, BTK; experiment: BTK degradation, DC50 and Dmax of Table 1 (cell line not given); format: cell-based; parameters: endogenous in cells; details: for DC50: concentration giving 50% reduction of BTK expression level
[6] = biological target: T1, BTK; experiment: Degradation of BTK protein in Mino cells (Western blot; DC50, Dmax); details: Mino mantle cell lymphoma cells, various concentrations, 24 hours
Protocol: as §2

[7] = read-out: DC50 (BTK degradation), concentration giving 50% reduction of BTK expression level
[8] = read-out: Dmax (BTK degradation)

## Nc1ncnc2c1c(-c1ccc(Oc3ccccc3)cc1)nn2C1CCN(C(=O)N2CCC(CN3CCN(c4ccc5c(c4)CN(C4CCC(=O)NC4=O)C5=O)CC3)CC2)CC1 (stereo not shown) [Compound 86, 3-(5-(4-((1-(4-(4-amino-3-(4-phenoxyphenyl)-1H-pyrazolo(3,4-d)pyrimidin-1-yl)piperidine-1-carbonyl)piperidin-4-yl)methyl)piperazin-1-yl)-1-oxoisoindolin-2-yl)piperidine-2,6-dione]
[1]; Homo sapiens, MINO
  IC50: < 1 µM
[2]
  degradation of BTK protein: dose-dependent degradation
[3]; Homo sapiens
  IC50: < 1 µM
[4]
  degradation of BTK protein: dose-dependent degradation
[5]
  Dmax: > 90%
  DC50: < 0.01 µM

## Nc1ncnc2c1c(-c1ccc(Oc3ccccc3)cc1)nn2C1CCN(CC2CN(CC3CCN(c4ccc5c(c4)C(=O)N(C4CCC(=O)NC4=O)C5=O)CC3)C2)CC1 (stereo not shown) [Compound 439, 5-(4-((3-((4-(4-amino-3-(4-phenoxyphenyl)-1H-pyrazolo(3,4-d)pyrimidin-1-yl)piperidin-1-yl)methyl)azetidin-1-yl)methyl)piperidin-1-yl)-2-(2,6-dioxopiperidin-3-yl)isoindoline-1,3-dione]
[1]; Homo sapiens, MINO
  IC50: < 1 µM
[2]
  degradation of BTK protein: dose-dependent degradation
[6]
  degradation of BTK protein: dose-dependent degradation
[3]; Homo sapiens
  IC50: 1 to 10 µM
[4]
  degradation of BTK protein: dose-dependent degradation
[4]; [7]
  DC50: < 0.01 µM
[4]; [8]
  Dmax: > 90%

## Nc1ncnc2c1c(-c1ccc(Oc3ccccc3)cc1)nn2C1CCN(C2CCN(CC3CCN(c4ccc5c(c4)C(=O)N(C4CCC(=O)NC4=O)C5=O)CC3)CC2)CC1 (stereo not shown) [Compound 213, 5-(4-((4-(4-amino-3-(4-phenoxyphenyl)-1H-pyrazolo(3,4-d)pyrimidin-1-yl)-(1,4′-bipiperidin)-1′-yl)methyl)piperidin-1-yl)-2-(2,6-dioxopiperidin-3-yl)isoindoline-1,3-dione]
[1]; Homo sapiens, MINO
  IC50: < 1 µM
[2]
  degradation of BTK protein: dose-dependent degradation
[6]
  degradation of BTK protein: dose-dependent degradation
[3]; Homo sapiens
  IC50: < 1 µM
[4]
  Dmax: > 90%
  degradation of BTK protein: dose-dependent degradation
[4]; BTK degradation
  DC50: < 0.01 µM

## Nc1ncnc2c1c(-c1ccc(Oc3ccccc3)cc1)nn2C1CCN(CCOCCOCCN2CCC(c3ccc4c(c3)CN(C3CCC(=O)NC3=O)C4=O)CC2)CC1 (stereo not shown) [Compound 419, 3-(5-(1-(2-(2-(2-(4-(4-amino-3-(4-phenoxyphenyl)-1H-pyrazolo[3,4-d]pyrimidin-1-yl)piperidin-1-yl)ethoxy)ethoxy)ethyl)piperidin-4-yl)-1-oxoisoindolin-2-yl)piperidine-2,6-dione]
[1]
  IC50: 1 to 10 µM
[2]
  degradation of BTK protein: dose-dependent degradation
[6]
  degradation of BTK protein: dose-dependent degradation
[3]
  IC50: 1 to 10 µM
[4]
  degradation of BTK protein: dose-dependent degradation
[4]; [7]
  DC50: < 0.01 µM
[4]; [8]
  Dmax: > 90%

## Nc1ncnc2c1c(-c1ccc(Oc3ccccc3)cc1)nn2C1CCN(C(=O)N2CC(N3CCN(c4ccc5c(c4)C(=O)N(C4CCC(=O)NC4=O)C5=O)CC3)C2)CC1 (stereo not shown) [Compound 477, 5-(4-(1-(4-(4-amino-3-(4-phenoxyphenyl)-1H-pyrazolo[3,4-d]pyrimidin-1-yl)piperidine-1-carbonyl)azetidin-3-yl)piperazin-1-yl)-2-(2,6-dioxopiperidin-3-yl)isoindoline-1,3-dione]
[1]; Homo sapiens, MINO
  IC50: < 1 µM
[6]
  degradation of BTK protein: dose-dependent degradation
[3]; Homo sapiens
  IC50: < 1 µM
[4]; [7]
  DC50: < 0.01 µM
[4]; [8]
  Dmax: > 90%

## Nc1ncnc2c1c(-c1ccc(Oc3ccccc3)cc1)nn2C1CCN(CC2CCN(C(=O)N3CCN(c4ccc5c(c4)CN(C4CCC(=O)NC4=O)C5=O)CC3)CC2)CC1 (stereo not shown) [Compound 36, 3-(5-(4-(4-((4-(4-amino-3-(4-phenoxyphenyl)-1H-pyrazolo(3,4-d)pyrimidin-1-yl)piperidin-1-yl)methyl)piperidine-1-carbonyl)piperazin-1-yl)-1-oxoisoindolin-2-yl)piperidine-2,6-dione]
[1]; Homo sapiens
  IC50: < 1 µM
[2]
  degradation of BTK protein: dose-dependent degradation
[3]; Homo sapiens
  IC50: < 1 µM
[4]
  degradation of BTK protein: dose-dependent degradation
[5]
  Dmax: > 90%
  DC50: < 0.01 µM

## Nc1ncnc2c1c(-c1ccc(Oc3ccccc3)cc1)nn2C1CCN(C(=O)N2CC(N3CCN(c4ccc5c(c4)CN([C@H]4CCC(=O)NC4=O)C5=O)CC3)C2)CC1 [Compound 484, (S)-3-(5-(4-(1-(4-(4-amino-3-(4-phenoxyphenyl)-1H-pyrazolo[3,4-d]pyrimidin-1-yl)piperidine-1-carbonyl)azetidin-3-yl)piperazin-1-yl)-1-oxoisoindolin-2-yl)piperidine-2,6-dione]
[1]; Homo sapiens, MINO
  IC50: < 1 µM
[6]
  degradation of BTK protein: dose-dependent degradation
[3]; Homo sapiens
  IC50: < 1 µM
[4]; [7]
  DC50: < 0.01 µM
[4]; [8]
  Dmax: > 90%

## Nc1ncnc2c1c(-c1ccc(Oc3ccccc3)cc1)nn2C1CCN(C2CCN(CC3CN(c4ccc5c(c4)C(=O)N(C4CCC(=O)NC4=O)C5=O)C3)C2)CC1 (stereo not shown) [Compound 425, 5-(3-((3-(4-(4-amino-3-(4-phenoxyphenyl)-1H-pyrazolo(3,4-d)pyrimidin-1-yl)piperidin-1-yl)pyrrolidin-1-yl)methyl)azetidin-1-yl)-2-(2,6-dioxopiperidin-3-yl)isoindoline-1,3-dione]
[1]; Homo sapiens, MINO
  IC50: 1 to 10 µM
[2]
  degradation of BTK protein: dose-dependent degradation
[3]; Homo sapiens
  IC50: 1 to 10 µM
[4]
  degradation of BTK protein: dose-dependent degradation
[4]; [7]
  DC50: 0.01 to 0.05 µM
[4]; [8]
  Dmax: > 90%

## Nc1ncnc2c1c(-c1ccc(Oc3ccccc3)cc1)nn2C1CCN(C(=O)N2CC(N3CCN(c4ccc5c(c4)CN(C4CCC(=O)NC4=O)C5=O)CC3)C2)CC1 (stereo not shown) [Compound 478, 3-(5-(4-(1-(4-(4-amino-3-(4-phenoxyphenyl)-1H-pyrazolo[3,4-d]pyrimidin-1-yl)piperidine-1-carbonyl)azetidin-3-yl)piperazin-1-yl)-1-oxoisoindolin-2-yl)piperidine-2,6-dione]
[1]; Homo sapiens, MINO
  IC50: < 1 µM
[6]
  degradation of BTK protein: dose-dependent degradation
[3]; Homo sapiens
  IC50: < 1 µM
[4]
  degradation of BTK protein: dose-dependent degradation
[4]; [7]
  DC50: < 0.01 µM
[4]; [8]
  Dmax: > 90%

## Nc1ncnc2c1c(-c1ccc(Oc3ccccc3)cc1)nn2C1CCN(CC2CCN(C(=O)N3CCC(C4CCN(c5ccc6c(c5)C(=O)N(C5CCC(=O)NC5=O)C6=O)CC4)CC3)CC2)CC1 (stereo not shown) [Compound 39, 5-(1′-(4-((4-(4-amino-3-(4-phenoxyphenyl)-1H-pyrazolo(3,4-d)pyrimidin-1-yl)piperidin-1-yl)methyl)piperidine-1-carbonyl)-(4,4′-bipiperidin)-1-yl)-2-(2,6-dioxopiperidin-3-yl)isoindoline-1,3-dione]
[1]; Homo sapiens, MINO
  IC50: 1 to 10 µM
[3]; Homo sapiens
  IC50: > 10 µM
[4]
  degradation of BTK protein at 10^−6 M: degradation
  degradation of BTK protein: dose-dependent degradation
[5]
  Dmax: > 90%
  DC50: > 0.05 µM

## Nc1ncnc2c1c(-c1ccc(Oc3ccccc3)cc1)nn2[C@@H]1CCCN(CC2CCN(C(=O)N3CCN(c4ccc5c(c4)C(=O)N(C4CCC(=O)NC4=O)C5=O)CC3)CC2)C1 (stereo partly drawn) [Compound 25, 5-(4-(4-(((R)-3-(4-amino-3-(4-phenoxyphenyl)-1H-pyrazolo(3,4-d)pyrimidin-1-yl)piperidin-1-yl)methyl)piperidine-1-carbonyl)piperazin-1-yl)-2-(2,6-dioxopiperidin-3-yl)isoindoline-1,3-dione]
[1]; Homo sapiens, MINO
  IC50: 1 to 10 µM
[3]; Homo sapiens
  IC50: 1 to 10 µM
[4]
  degradation of BTK protein at 10^−6 M: degradation
[5]
  Dmax: > 75%
  DC50: > 0.05 µM

## Nc1ncnc2c1c(-c1ccc(Oc3ccccc3)cc1)nn2C1CCN(CC2CCN(/C=C/C(=O)CN3CCN(c4ccc5c(c4)CN(C4CCC(=O)NC4=O)C5=O)CC3)CC2)CC1 (stereo not shown) [Compound 420, (E)-3-(5-(4-(4-(4-((4-(4-amino-3-(4-phenoxyphenyl)-1H-pyrazolo[3,4-d]pyrimidin-1-yl)piperidin-1-yl)methyl)piperidin-1-yl)-2-oxobut-3-en-1-yl)piperazin-1-yl)-1-oxoisoindolin-2-yl)piperidine-2,6-dione]
[1]; Homo sapiens, MINO
  IC50: 1 to 10 µM
[2]
  degradation of BTK protein: dose-dependent degradation
[6]
  degradation of BTK protein: dose-dependent degradation
[3]; Homo sapiens
  IC50: 1 to 10 µM
[4]
  degradation of BTK protein: dose-dependent degradation
[4]; [7]
  DC50: < 0.01 µM
[4]; [8]
  Dmax: > 90%

## Nc1ncnc2c1c(-c1ccc(Oc3ccccc3)cc1)nn2C1CCN(C2CCN(CC3CCN(c4ccc5c(c4)C(=O)N(C4CCC(=O)NC4=O)C5=O)CC3)C2)CC1 (stereo not shown) [Compound 449, 5-(4-((3-(4-(4-amino-3-(4-phenoxyphenyl)-1H-pyrazolo(3,4-d)pyrimidin-1-yl)piperidin-1-yl)pyrrolidin-1-yl)methyl)piperidin-1-yl)-2-(2,6-dioxopiperidin-3-yl)isoindoline-1,3-dione]
[1]; Homo sapiens, MINO
  IC50: < 1 µM
[6]
  degradation of BTK protein: dose-dependent degradation
[3]; Homo sapiens
  IC50: < 1 µM
[4]
  degradation of BTK protein: dose-dependent degradation
[4]; [7]
  DC50: < 0.01 µM
[4]; [8]
  Dmax: > 90%
